Where “and” joins values, the source holds several entries; their conditions need not be identical. Equal values may be shown once.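 Compound exposure: 48 hours, 5 concentrations, 96-well plates. GI50 is the concentration that inhibits growth by half. TGI denotes the concentration required for complete inhibition of growth.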
Columns and labels:
Test in all cases: inhibition of tumour cell growth, NCI panel, 48 h
HOP-62 NSCLC = tested on: HOP-62 NSCLC
K-562 leukemia = tested on: K-562 leukemia
LOX IMVI melanoma = tested on: LOX IMVI melanoma
MDA-MB-435 = tested on: MDA-MB-435
MOLT-4 leukemia = tested on: MOLT-4 leukemia
NCI-H226 lung = tested on: NCI-H226 lung
OVCAR-5 ovarian = tested on: OVCAR-5 ovarian
SK-MEL-28 melanoma = tested on: SK-MEL-28 melanoma
SNB-75 CNS = tested on: SNB-75 CNS
CCRF-CEM leukemia = tested on: CCRF-CEM leukemia

Structure (SMILES) | TGI (HOP-62 NSCLC) [µM] | TGI (K-562 leukemia) [µM] | TGI (LOX IMVI melanoma) [µM] | TGI (MDA-MB-435) [µM] | TGI (MOLT-4 leukemia) [µM] | TGI (NCI-H226 lung) [µM] | TGI (OVCAR-5 ovarian) [µM] | TGI (SK-MEL-28 melanoma) [µM] | TGI (SNB-75 CNS) [µM] | TGI (CCRF-CEM leukemia) [µM] | GI50 (SNB-75 CNS)
Cc1ccc([N+](=O)[O-])cc1S(=O)(=O)Nc1ccc(C2=NN(S(=O)(=O)c3cc([N+](=O)[O-])ccc3C)C(c3cccs3)C2)cc1 (stereo not drawn) | > 100 | 88.3 | > 100 | > 100 | 89.3 | > 100 | > 100 | > 100 | > 100 |  | 
Cc1cccc2c(=O)c3cccc([C@H](C)C(=O)O)c3oc12 | > 100 | > 100 | > 100 | > 100 | > 100 | > 100 |  | > 100 |  | > 100 | 
CN(C)CCCNc1ccnc2c([N+](=O)[O-])cccc12 | 82.5 |  | 39 |  | 66.7 | > 100 |  | > 100 |  | 96 | 
COc1ccc(N2C(=O)C3ON(Cc4ccc(CC(N)=O)cc4)C(c4c5ccccc5c(C)c5ccccc45)C3C2=O)cc1 (stereo not drawn) | > 100 | 38 | > 100 | > 100 | 6.41 |  | 83.8 | > 100 | 38.1 | > 100 | 
O=c1cc(NNc2ccccc2)[nH]c(=O)[nH]1 | > 100 | 91.1 | 42.7 | 33.7 | 66.1 | 36 | > 100 | 23.2 |  | > 100 | 
COc1cc(/C=C/c2ccc(OC)c(OC)c2)oc(=O)c1 | > 250 | > 250 | > 250 |  | > 250 | > 250 | > 250 | > 250 | > 227 | > 250 | 
COc1ccc(C2CC(c3sc(Nc4ccc(C)cc4)nc3C)=NN2)cc1 (stereo not drawn) | 38.3 | 39.1 | 34.4 |  | 32.7 | 33.5 | 39.2 | 33.6 | 34.1 | 54.7 | 
COc1cc2ncnc(NS(=O)(=O)c3cc4ccccc4s3)c2cc1OC | > 100 | > 100 | > 100 | > 100 | > 100 | > 100 | > 100 |  | > 100 | > 100 | 
CCN(CC)CCC(=O)/C=C/c1ccc(Cl)c(Cl)c1 | > 10 | > 10 |  | > 10 | > 10 | > 10 | > 10 |  |  | 7.18 | 
CC(=O)OCC1OC(n2c(C)c(C)cc(C#N)c2=S)C(OC(C)=O)C(OC(C)=O)C1OC(C)=O (stereo not drawn) | > 100 | > 100 | > 100 |  | > 100 | > 100 | > 100 | > 100 | > 100 |  | 17 µM and > 100 µM
CCCCn1c(=O)[nH]c2c(N)ncnc21 | > 100 | > 100 | > 100 | > 100 |  | > 100 | > 100 | > 100 | > 100 | > 100 | 
O=C1/C(=C/c2cccc([N+](=O)[O-])c2)N=C(c2ccccc2)N1c1nc2ccc(Sc3ccccc3)cc2[nH]1 | > 100 | > 100 | > 100 | 37 | > 100 | > 100 | > 100 | > 100 | > 100 |  | 
O=[N+]([O-])c1ccc2c(c1)nc1n2C(c2c(F)cccc2F)SC1 (stereo not drawn) | > 100 | > 100 | > 100 | > 100 | > 100 |  | > 100 | > 100 | > 100 | > 100 | 
CCC1(O)C(=O)OCc2c1cc1n(c2=O)Cc2cc3cc4c(cc3nc2-1)OCO4 (stereo not drawn) | < 0.0198 | > 100 | 0.0688 | 9.1 | 0.178 | 0.0252 | 0.693 | 18.9 | 0.0369 |  | 
COc1ccc(C2=C(OC(C)=O)c3cccn3-c3ccc(Cl)cc3S2)cc1 | > 10 | 5.69 | > 10 | 4.84 | 7.47 |  |  | > 10 | > 10 | > 10 | 
COC(=O)[C@@]12CSC[C@]1(C(=O)OC)N[C@@H](c1ccccc1O)C2 | > 100 | > 100 |  | > 100 | > 100 | > 100 | > 100 | > 100 | > 100 | > 100 | 
Cc1[nH]n(-c2nc(-c3ccccc3)cc(=O)[nH]2)c(=O)c1CCO | > 100 | > 100 | > 100 | > 100 | > 100 | > 100 | > 100 | > 100 |  | > 100 | 
CC(C)CC1c2[nH]c3ccccc3c2C[C@H]2C(=O)NC(Cc3c[nH]c4ccccc34)C(=O)N12 (stereo partly drawn) | 45.9 | 61.5 | 31.1 | 34.4 | 39.1 | 50 | 48 | 40.5 |  |  | 
COc1ccc(-c2c(C#N)c(N)[nH]c(=S)c2C#N)cc1 | > 100 | > 100 | > 100 | 95.5 | > 100 | > 100 | > 100 | > 100 |  |  | 
CCC1c2[nH]c3ccccc3c2C[C@H]2C(=O)NC(C)C(=O)N12 (stereo partly drawn) | > 100 | > 100 | > 100 | > 100 | > 100 | > 100 | > 100 | > 100 | > 100 |  | 
O=C(COc1cc(=O)oc2ccccc12)c1ccccc1 | > 100 | > 100 | > 100 |  | > 100 | 49 | > 100 | > 100 | > 100 | > 100 | 
CC1=C[P+](c2ccccc2)(c2ccccc2)c2ccccc2O1 | 59 | > 100 | 17.2 | 12 | 21 | 46.2 | > 100 | 62.5 | > 100 |  | 
Cc1cn(S(=O)(=O)c2ccccc2)c2c(OCc3ccccc3)cc([N+](=O)[O-])cc12 |  | > 100 | > 100 | > 100 | > 100 | > 100 | > 100 | > 100 | > 100 | > 100 | 

— PubChem BioAssay (NCI)
